This is an account of results in ChEMBL document CHEMBL6103547, “Comprehensive exploration of isocitrate dehydrogenase (IDH) mutations: Tumorigenesis, drug discovery, and covalent inhibitor advances” (Eur J Med Chem, 2025).

A short description of assay [1]: Inhibition of IDH2 R172S mutant (unknown origin). Also on record: species or system Homo sapiens.
Assay [2] can be described thus: Downregulation of HoxA9 expression in human AML3 cells. In kind it is functional, cell-based.
In assay [3] the test system is HCT-116. In words: Antiproliferative activity against human HCT-116 cells. The format is functional, cell-based.
Assay [4] deals with Isocitrate dehydrogenase [NADP], mitochondrial (Homo sapiens, UniProt P48735, R172K). In words: Inhibition of FLAG-tagged IDH2 R172K mutant (unknown origin) extracted from baculovirus infected Sf9 cells.
The test system of assay [5] is TF-1. In words: Antiproliferative activity against human TF-1 cells. The format is functional, cell-based.
Assay [6] deals with Isocitrate dehydrogenase [NADP], mitochondrial (Homo sapiens, UniProt P48735, R140Q). As to the kind of experiment: Inhibition of FLAG-tagged IDH2 R140Q mutant (unknown origin) extracted from baculovirus infected Sf9 cells.
Assay [7] concerns U-87 MG. As to the kind of experiment: Antiproliferative activity against human U87. The format is functional, cell-based, U-87MG ATCC.

Sequence of Isocitrate dehydrogenase [NADP], mitochondrial (Homo sapiens, UniProt P48735, R140Q) (P48735 40-452 R140Q limits assumed): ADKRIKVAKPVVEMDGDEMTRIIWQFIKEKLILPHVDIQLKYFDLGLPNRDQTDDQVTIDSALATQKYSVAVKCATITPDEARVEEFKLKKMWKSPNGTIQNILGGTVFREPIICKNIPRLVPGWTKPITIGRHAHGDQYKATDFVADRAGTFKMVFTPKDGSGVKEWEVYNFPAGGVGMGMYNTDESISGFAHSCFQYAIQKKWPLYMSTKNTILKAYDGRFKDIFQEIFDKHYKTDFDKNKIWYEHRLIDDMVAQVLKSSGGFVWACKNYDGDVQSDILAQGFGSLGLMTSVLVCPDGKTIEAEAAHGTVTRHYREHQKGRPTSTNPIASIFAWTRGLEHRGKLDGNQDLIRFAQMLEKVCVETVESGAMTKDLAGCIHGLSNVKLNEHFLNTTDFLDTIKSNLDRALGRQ
Sequence of Isocitrate dehydrogenase [NADP], mitochondrial (Homo sapiens, UniProt P48735, R172K) (P48735 40-452 R172K limits assumed): as the sequence (P48735 40-452 R140Q limits assumed) above, with Q101R, R133K counted along it

The compound `C[C@H](O)c1cccc(NC(=O)c2nn(Cc3ccc(F)cc3)c3c2CN(C(=O)c2ccc[nH]2)C[C@H]3C)c1` had a half-inhibitory concentration (IC50) in assay [1] of 1030 nM.
The compound `C[C@H]1C[C@@H](n2c(Nc3ccc(OC(F)(F)F)cc3)nc3cc(CCC(=O)O)ccc32)CC(C)(C)C1` [BAY1436032] registered an IC50 in assay [2] of 60 nM.
`CC(C)(O)CNc1nc(Nc2ccnc(C(F)(F)F)c2)nc(-c2cccc(C(F)(F)F)n2)n1` [ENASIDENIB]: the IC50 came to 530 nM in assay [3]; 200 nM in assay [4]; 20 nM in assay [5]; 320 nM in assay [6]; 10 nM in assay [7].
